Literature values as cited in publication PMC5555364 (ACS chemical neuroscience, 2016).

Experiments:
NaV = details: hyperpolarizing
[1] = system: single-point mutants of rNaV1.4; details: all amino acid mutations of Figure 5 except tyrosine 1586

## Batrachotoxin [BTX]
NaV
  shift of voltage-dependence of channel activation: −45 mV
[1]
  effect of mutations on BTX action on channel function: abrogate the effect of BTX
